# Experimental data taken from patent US20100204136A1, “USE OF A PEPTIDE AS A THERAPEUTIC AGENT” (priority 2007, published 2010).
# Key:
# [1] = test system: HIV-1IIIB; assay: HIV-1 antiviral assay (CPE reduction, MTS); type: cell-based; conditions: peptide 10 micrograms per ml; 6 days post-infection
# [2] = test system: CEM-SS cells; assay: Cytotoxicity in HIV-1 assay (MTS cell viability); conditions: peptide 10 micrograms per ml
# [3] = test system: HepG2-2.2.15 cells; assay: Cytotoxicity in HBV assay (dye uptake cell viability); type: cell-based; conditions: test peptide 10 micrograms per ml
# [4] = test system: MRC-5 cells; conditions: human, 6 days
# Procedure: For cytotoxicity testing, MRC-5 cells were seeded at 2,500 cells/well in 96 well plates using growth medium. […] The following day, peptide was added and tested in duplicates. After a 6 days incubation period, cell viability was measured using CellTiter 96 Solution (Promega). Plates were incubated for additional 4 hours at 37° C. Adhesive plate sealers were used in place of lids, the sealed plates were inverted several times to mix the soluble formazan product and the plate was read spectrophotometrically at 490/560 nm with a Molecular Devices Vmax plate reader.
smiles,measurement,setting,value
Cc1cn([C@H]2C[C@H](N=[N+]=[N-])[C@@H](CO)O2)c(=O)[nH]c1=O [AZT],% CPE reduction in HIV-1 infected CEM-SS cells,[1],99%
same,% Cell viability,[2],97%
Nc1ccn([C@@H]2CS[C@H](CO)O2)c(=O)n1 [Compound 3TC],% Cell viability,[3],95.8%
Nc1nc(O)c2ncn(COC(CO)CO)c2n1 [Ganciclovir],% Cell viability,[4],100%
